# According to patent publication US7078540B1, “Substituted aromatic-ring compounds, process for producing the same, and use” (Takeda Pharmaceutical Company Limited, priority 1999, dated 2006):
# pIC50: −log10 of the molar value.
# Legend:
# [1] = system: NO production by RAW264.7 cells; experiment: Inhibitory activity on NO production in LPS/interferon-γ stimulated RAW264.7 cells; assay type: cell-based, mouse; details: LPS 5 ng/ml + interferon-γ 1 U/ml, overnight, nitrite in culture supernatant
# Experimental: Using mouse macrophage cell line, RAW264.7 as iNOS inducible cells, percent inhibition of NO production by the test compound was measured. The test compound was dissolved in N,N-dimethylformamide to 10 mM and diluted with RPMI-1640 medium to 0.1 mM. Furthermore, it was prepared with a medium to make a final concentration from 10 μM to 10 nM by diluting 10-fold, and added to the culture. The day before the experiment, the cells were prepared with RPMI-1640 medium supplemented with heat-inactivated 10% fetal calf serum to a concentration of 5×10^5 cells/ml and plated to a 96-well plate by 1×10^5 cells/0.2 ml per well. After culturing at 37° C. under 5% CO2/95% air overnight, the medium was changed to RPMI-1640 medium supplemented with heat-inactivated 1% fetal calf serum. Thereto was added the prepared test compound, and LPS and interferon-γ were added to a final concentrations of 5 ng/ml and 1 U/ml, respectively. After incubation overnight, the concentration of nitrite ion (stable metabolite of NO) in the culture supernatant was measured and used as an index of NO production. The nitrite concentration was quantitatively measured by adding 20 μg/ml 2,3-diaminonaphtalene (DAN) by 25 μl to the culture supernatant (50 μl), incubating at room temperature for 10 min, adding 0.5N NaOH (25 μl) and measuring the fluorescence at 450 nm (excitation wavelength 365 nm).
# [2] = system: IL-1β production by human monocyte cell line P31/FUJ; experiment: Inhibitory activity on IL-1β production in P31/FUJ cells; assay type: cell-based; details: PMA pretreated, LPS 100 ng/ml + interferon-γ 10 U/ml, overnight
# Experimental: (§1) Using human monocyte cell line P31/FUJ (JCRB0091, establisher: Fujioka, obtained from the Human Science Research Resource Bank), the percent inhibition of cytokine production by the test compound was measured. The test compound was dissolved in N,N-dimethylformamide to 10 mM and diluted with RPMI-1640 medium to 0.1 mM. Furthermore, it was prepared with a medium to make a final concentration from 10 μM to 10 nM by diluting 10-fold, and added to the culture. The day before the experiment, the cells were prepared with RPMI-1640 medium supplemented with 10% fetal calf serum to a concentration of 2×10^6 cells/ml and plated to a 96-well plate by 2×10^5 cells/0.1 ml per well. The above-mentioned medium (0.1 ml) supplemented with 40 nM phorbol 12-myristate 13-acetate (PMA) was added and the mixture was cultured at 37° C. under 5% CO2/95% air overnight. The cells were washed with the above-mentioned medium to remove PMA and the prepared test compound was added, and LPS and interferon-γ were added to a final concentrations of 100 ng/ml and 10 U/ml, respectively. After culturing overnight, the concentration of TNF-α and IL-1β in the culture supernatant was measured. For quantitative determination of each cytokine, a quantitative determination kit by Amersham was used.
# blood NOx concentration = experiment: Effect against increase in blood nitrogen oxide concentration in LPS-treated mice; assay type: in vivo, mouse; details: female BALB/c mice, 10 mg/kg orally 1 h before LPS 10 mg/kg i.p., sera at 6 h after LPS, relative to control group
# Text: When a biological defense response against infection and the like, immunopathy and the like causes NO production in the body, it is quickly metabolized into nitrous acid and nitric acid, whereby blood nitrogen oxide concentration (NOx) increases. Using test animals, the effect of the test compound against increase in blood NOx concentration was examined.
# Female BALB/c mice (7-week-old) were divided into 6–8 mice per group. For the test compound group, the test compound was suspended in 0.5% aqueous methylcellulose solution and 10 mg/kg thereof was orally administered. For the control group, a solvent was similarly administered. One hour later, LPS (10 mg/kg) was intraperitoneally administered to the test compound group and the control group. At 6 h after LPS administration, blood was drawn and nitrate ion+nitrite ion concentration in sera was measured. The nitrate ion was converted to nitrous acid ion with nitrate reductase and quantitatively measured as a total nitrite ion concentration by fluorescence method using the aforementioned DAN.
# [3] = system: TNF-α production by human monocyte cell line P31/FUJ; experiment: Inhibitory activity on TNF-α production in P31/FUJ cells; assay type: cell-based; details: PMA pretreated, LPS 100 ng/ml + interferon-γ 10 U/ml, overnight
# Experimental: as §1
# [4] = Mus musculus, RAW264.7, RAW264.7 cells
SMILES,"pIC50 [1, 4]",pIC50 ([1]; RAW264.7 cells),also measured
"CCOC(=O)C1=CCCCC1S(=O)(=O)Cc1ccc(OC)cc1 (stereo not shown) [Compound 2, ethyl 6-[(4-methoxybenzyl)sulfonyl]-1-cyclohexene-1-carboxylate]",5.49,,
"CCOC(=O)C1=CCOCC1S(=O)(=O)Nc1ccc(F)cc1F (stereo not shown) [Compound 7, ethyl 3-[(2,4-difluorophenyl)-sulfamoyl]-3,6-dihydro-2H-pyran-4-carboxylate]",7.74,,
"CCOC(=O)C1=CCOCC1S(=O)(=O)Nc1ccc(F)cc1Cl (stereo not shown) [Compound 8, ethyl 3-[(2-chloro-4-fluorophenyl)sulfamoyl]-3,6-dihydro-2H-pyran-4-carboxylate]",8.51,,"pIC50 ([2]; Homo sapiens, P31-FUJ): 7.96; Blood NOx inhibition (%) (blood NOx concentration): 80%; pIC50 ([3]; Homo sapiens, P31-FUJ): 7.70"
"CCOC(=O)C1=CCCCC1S(=O)(=O)Cc1ccc(F)cc1Cl (stereo not drawn) [Compound 5, ethyl (−)-6-[(2-chloro-4-fluorobenzyl)sulfonyl]-1-cyclohexene-1-carboxylate]",,6.00,
"CCOC(=O)C1=CCCCC1S(=O)(=O)Cc1ccc(F)cc1F (stereo not shown) [Compound 3, ethyl 6-[(2,4-difluorobenzyl)sulfonyl]-1-cyclohexene-1-carboxylate]",7.33,,
"CCOC(=O)C1=CCCCC1S(=O)(=O)Cc1ccc(F)cc1Cl (stereo not shown) [Compound 4, ethyl 6-[(2-chloro-4-fluorobenzyl)-sulfonyl]-1-cyclohexene-1-carboxylate]",,7.54,"pIC50 [2]: 6.24; Blood NOx inhibition (%) (blood NOx concentration): 62%; pIC50 ([3]; Homo sapiens, P31-FUJ): 6.70"
"CCOC(=O)C1=CCCCC1S(=O)(=O)Cc1ccccc1 (stereo not shown) [Compound 1, ethyl 6-(benzylsulfonyl)-1-cyclohexene-1-carboxylate]",6.62,,
"CCOC(=O)C1=CCCCC1S(=O)(=O)Cc1ccc(F)cc1Cl (stereo not drawn) [Compound 6, ethyl (+)-6-[(2-chloro-4-fluorobenzyl)sulfonyl]-1-cyclohexene-1-carboxylate]",,8.03,pIC50 [2]: 6.64; pIC50 [3]: 6.82
